{"source": "ChEMBL document CHEMBL4382198", "about": "“Discovery of Risdiplam, a Selective Survival of Motor Neuron-2 ( SMN2) Gene Splicing Modifier for the Treatment of Spinal Muscular Atrophy (SMA)” (J Med Chem, 2018)", "key": {"[1]": {"organism": "Homo sapiens", "test": "Modulation of human SMN2 mRNAsplicing expressed in HEK293H cells by qRT-PCR analysis", "assay_type": "cell-based"}, "[2]": {"test": "physchem"}, "[3]": {"test": "Chronic toxicity in retina of po dosed cynomolgus monkey assessed as RPE hypertrophy 39 weeks by histological analysis", "assay_type": "organism-based, Macaca fascicularis", "settings": "in vivo, 6552 h"}, "[4]": {"system": "Mus musculus", "test": "In-vivo stabilization of SMN2 mRNA in SMA neonatal delta7 mouse model assessed as increase in SMN protein levels in quadriceps at 0.3 mg/kg, ip dosed once daily starting from postnatal day 3 to postnatal day 9 relative to control", "assay_type": "functional"}, "[5]": {"test": "Chronic toxicity in retina of po dosed cynomolgus monkey assessed as effect on outer nuclear layers after 39 weeks by histological analysis", "assay_type": "organism-based, Macaca fascicularis", "settings": "in vivo, 6552 h"}, "[6]": {"test": "Clearance in rat at 1.9 mg/kg, iv administered as single dose", "assay_type": "ADME, organism-based", "settings": "in vivo"}, "[7]": {"system": "Mus musculus", "test": "In-vivo stabilization of SMN2 mRNA in SMA adult C/C allele mouse model assessed as increase in SMN protein levels in brain at 10 mg/kg, po dosed once daily for 10 days relative to control", "assay_type": "functional"}, "[8]": {"test": "Chronic toxicity in retina of po dosed cynomolgus monkey assessed as formation of microcystic spaces in the inner retinal layers after 39 weeks by OCT analysis", "assay_type": "organism-based, Macaca fascicularis", "settings": "in vivo, 6552 h"}, "[9]": {"test": "Lipophilicity, log D of the compound at pH 7.4", "assay_type": "physicochemical", "settings": "buffer"}, "[10]": {"test": "Effect on human FOXM1a mRNA splicing expressed in human SMA-derived fibroblasts by RT-qPCR analysis", "assay_type": "ADME"}, "[11]": {"test": "Stabilization of human STRN3 mRNA splicing expressed in human SMA-derived fibroblasts at 121 to 605 nM by RT-qPCR analysis", "assay_type": "ADME", "settings": "0.605 µM"}, "[12]": {"test": "Efflux ratio of permeability in human SMA-derived fibroblasts", "assay_type": "ADME, cell-based, Fibroblast", "settings": "not told"}, "[13]": {"system": "Mus musculus", "test": "In-vivo stabilization of SMN2 mRNA in SMA neonatal delta7 mouse model assessed as increase in SMN protein levels in brain at 1 mg/kg, ip dosed once daily starting from postnatal day 3 to postnatal day 9 relative to control", "assay_type": "functional"}, "[14]": {"system": "Mus musculus", "test": "In-vivo stabilization SMN2 mRNA in SMA delta7 ip dosed mouse assessed as increase in percentage of fully innervated NMJs dosed daily starting from postnatal day 3 to postnatal day 14 by immunohistochemistry", "assay_type": "functional, organism-based"}, "[15]": {"system": "Mus musculus", "test": "In-vivo stabilization of SMN2 mRNA in SMA neonatal delta7 mouse model assessed as increase in SMN protein levels in quadriceps at 10 mg/kg, ip dosed once daily starting from postnatal day 3 to postnatal day 9 relative to control", "assay_type": "functional"}, "[16]": {"test": "AUC (0 to 24 hrs) in SMA adult C/C allele mouse model at 1 mg/kg, po dosed once daily for 10 days", "assay_type": "ADME, organism-based", "parameters": "dose 1 mg/kg, time < 24 hr, route oral", "settings": "in vivo"}, "[17]": {"test": "Effect on FOXM1b/c mRNA splicing in cynomolgus monkey induced pluripotent stem cells by RT-qPCR analysis", "assay_type": "ADME, Macaca fascicularis", "settings": "Macaca fascicularis"}, "[18]": {"system": "Mus musculus", "test": "In-vivo stabilization of SMN2 mRNA in SMA neonatal delta7 mouse model assessed as increase in SMN protein levels in brain at 0.3 mg/kg, ip dosed once daily starting from postnatal day 3 to postnatal day 9 relative to control", "assay_type": "functional"}, "[19]": {"system": "Mus musculus", "test": "In-vivo stabilization SMN2 mRNA in SMA delta7 ip dosed mouse assessed as increased muscle size in the EDL dosed daily starting from postnatal day 3 to postnatal day 14 by immunohistochemistry", "assay_type": "functional, organism-based"}, "[20]": {"target": "Survival motor neuron protein (Homo sapiens) (UniProt Q16637)", "sequence (Q16637 whole entry)": "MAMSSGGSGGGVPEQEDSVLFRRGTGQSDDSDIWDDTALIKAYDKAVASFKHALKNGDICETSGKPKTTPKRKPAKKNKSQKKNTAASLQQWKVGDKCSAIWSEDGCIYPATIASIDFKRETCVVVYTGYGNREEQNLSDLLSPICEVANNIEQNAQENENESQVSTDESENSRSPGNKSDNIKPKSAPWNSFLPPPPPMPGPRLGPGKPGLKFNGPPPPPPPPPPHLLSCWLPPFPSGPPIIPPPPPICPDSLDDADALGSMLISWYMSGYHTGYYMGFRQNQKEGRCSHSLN", "test": "Activation of SMN protein in human SMA-derived fibroblasts after 48 hrs by HTRF assay"}, "[21]": {"test": "Stabilization of human MADD mRNA splicing expressed in human SMA-derived fibroblasts at 121 to 605 nM by RT-qPCR analysis", "assay_type": "ADME", "settings": "0.605 µM"}, "[22]": {"test": "Chronic toxicity in retina of po dosed cynomolgus monkey assessed as effect on photo-receptor layers after 39 weeks by histological analysis", "assay_type": "organism-based, Macaca fascicularis", "settings": "in vivo, 6552 h"}, "[23]": {"system": "Mus musculus", "test": "In-vivo stabilization SMN2 mRNA in SMA delta7 mouse assessed as increase in mean survival day at 0.1 to 3 mg/kg, ip dosed daily starting from postnatal day 3 to postnatal day 23 followed by po dosing 0.3 to 10 mg/kg per day via gavage", "assay_type": "functional, organism-based"}, "[24]": {"test": "Stabilization of human […] mRNA splicing expressed in human SMA-derived fibroblasts at 121 to 605 nM by RT-qPCR analysis", "assay_type": "ADME", "settings": "0.605 µM"}, "[25]": {"system": "Mus musculus", "test": "In-vivo stabilization of SMN2 mRNA in SMA adult C/C allele mouse model assessed as increase in SMN protein levels in brain at 1 mg/kg, po dosed once daily for 10 days relative to control", "assay_type": "functional"}, "[26]": {"system": "Mus musculus", "test": "In-vivo stabilization of SMN2 mRNA in SMA adult C/C allele mouse model assessed as increase in SMN protein levels in brain at 3 mg/kg, po dosed once daily for 10 days relative to control", "assay_type": "functional"}, "[27]": {"test": "Oral bioavailability in rat at 5.5 mg/kg administered as single dose", "assay_type": "ADME, organism-based", "settings": "in vivo"}, "[28]": {"test": "Toxicity in po dosed rat assessed phospholipidosis administered via gavage up to 26 weeks", "assay_type": "organism-based", "settings": "in vivo, 4368 h"}, "[29]": {"system": "NIH3T3", "test": "Phototoxicity in mouse 3T3 cells assessed as decrease in cell viability at 9 uM in presence of UV light by neutral red uptake assay", "assay_type": "cell-based", "settings": "nih3t3, 9 µM"}, "[30]": {"system": "Mus musculus", "test": "In-vivo stabilization of SMN2 mRNA in SMA adult C/C allele mouse model assessed as increase in SMN protein levels in quadriceps at 10 mg/kg, po dosed once daily for 10 days relative to control", "assay_type": "functional"}, "[31]": {"test": "Oral bioavailability in cynomolgus monkey at 0.5 mg/kg administered as single dose", "assay_type": "ADME, organism-based, Macaca fascicularis", "settings": "in vivo"}, "[32]": {"test": "Stabilization of human APLP2 mRNA splicing expressed in human SMA-derived fibroblasts at 121 to 605 nM by RT-qPCR analysis", "assay_type": "ADME", "settings": "0.605 µM"}, "[33]": {"test": "Cardiotoxicity in cynomolgus monkey assessed as prolongation of QTc interval time", "assay_type": "toxicity, Macaca fascicularis"}, "[34]": {"test": "Fraction unbound in human plasma", "assay_type": "ADME, cell-free"}, "[35]": {"system": "Mus musculus", "test": "In-vivo stabilization of SMN2 mRNA in SMA neonatal delta7 mouse model assessed as increase in SMN protein levels in quadriceps at 0.1 mg/kg, ip dosed once daily starting from postnatal day 3 to postnatal day 9 relative to control", "assay_type": "functional"}, "[36]": {"test": "Fraction unbound in mouse plasma", "assay_type": "ADME, cell-free"}, "[37]": {"system": "Mus musculus", "test": "In-vivo stabilization SMN2 mRNA in SMA delta7 ip dosed mouse assessed as increase in number of motor neurons dosed daily starting from postnatal day 3 to postnatal day 14 by immunohistochemistry", "assay_type": "functional, organism-based"}, "[38]": {"test": "Half life in cynomolgus monkey at 0.5 mg/kg, po administered as single dose", "assay_type": "ADME, organism-based, Macaca fascicularis", "settings": "in vivo"}, "[39]": {"system": "Mus musculus", "test": "In-vivo stabilization of SMN2 mRNA in SMA adult C/C allele mouse model assessed as increase in SMN protein levels in quadriceps at 3 mg/kg, po dosed once daily for 10 days relative to control", "assay_type": "functional"}, "[40]": {"test": "Half life in rat at 5.5 mg/kg, po administered as single dose", "assay_type": "ADME, organism-based", "settings": "in vivo"}, "[41]": {"target": "hERG (KCNH2) (Homo sapiens, UniProt Q12809)", "sequence (Q12809 whole entry)": "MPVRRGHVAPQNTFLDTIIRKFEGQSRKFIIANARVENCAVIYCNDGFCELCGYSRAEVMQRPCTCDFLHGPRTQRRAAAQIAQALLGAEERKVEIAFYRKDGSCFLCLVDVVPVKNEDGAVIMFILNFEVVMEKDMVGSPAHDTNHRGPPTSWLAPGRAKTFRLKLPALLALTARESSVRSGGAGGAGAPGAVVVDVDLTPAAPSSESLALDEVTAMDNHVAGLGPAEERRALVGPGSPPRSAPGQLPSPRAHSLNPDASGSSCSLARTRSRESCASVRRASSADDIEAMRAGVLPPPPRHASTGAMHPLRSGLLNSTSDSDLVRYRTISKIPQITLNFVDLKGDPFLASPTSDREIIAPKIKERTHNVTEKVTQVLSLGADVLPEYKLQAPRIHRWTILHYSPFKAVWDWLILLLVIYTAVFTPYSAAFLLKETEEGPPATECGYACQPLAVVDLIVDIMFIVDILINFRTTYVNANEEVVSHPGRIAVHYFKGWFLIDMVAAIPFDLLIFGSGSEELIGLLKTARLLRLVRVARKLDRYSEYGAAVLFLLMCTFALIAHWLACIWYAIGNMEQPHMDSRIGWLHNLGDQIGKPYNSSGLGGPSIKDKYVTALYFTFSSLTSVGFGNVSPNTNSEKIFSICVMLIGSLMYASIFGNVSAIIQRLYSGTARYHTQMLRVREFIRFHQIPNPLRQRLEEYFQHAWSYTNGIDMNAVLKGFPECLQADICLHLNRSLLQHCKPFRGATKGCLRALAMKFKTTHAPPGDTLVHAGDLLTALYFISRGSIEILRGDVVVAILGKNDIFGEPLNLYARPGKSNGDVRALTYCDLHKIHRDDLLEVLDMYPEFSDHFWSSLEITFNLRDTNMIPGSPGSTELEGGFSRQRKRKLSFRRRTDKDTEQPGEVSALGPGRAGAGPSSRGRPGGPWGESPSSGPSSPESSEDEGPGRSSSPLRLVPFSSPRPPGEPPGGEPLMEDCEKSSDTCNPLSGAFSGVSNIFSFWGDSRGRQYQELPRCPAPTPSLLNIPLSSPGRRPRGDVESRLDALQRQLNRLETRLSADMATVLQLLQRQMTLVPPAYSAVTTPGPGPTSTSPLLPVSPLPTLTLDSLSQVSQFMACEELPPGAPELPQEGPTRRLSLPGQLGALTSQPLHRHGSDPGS", "test": "Inhibition of human ERG at 37 degC", "settings": "human"}}, "note": "The source made the active and inactive calls. The rule behind the calls is not given here.", "data": [{"smiles": "Cc1cn2nc(-c3cc(=O)n4cc(N5CCNC6(CC6)C5)ccc4n3)cc(C)c2n1", "values": [{"measurement": "EC1.5", "setting": "[1]", "value": 4, "unit": "nM"}, {"measurement": "pKa", "setting": "[2]", "value": 6.8}, {"measurement": "Activity", "setting": "[3]", "value": "Toxic"}, {"measurement": "Activity", "setting": "[4]", "value": 64, "unit": "%"}, {"measurement": "Activity", "setting": "[5]", "value": "Toxic"}, {"measurement": "clearance", "setting": "[6]", "value": 8.9, "unit": "mL/min/kg"}, {"measurement": "Activity", "setting": "[7]", "value": 100, "unit": "%"}, {"measurement": "Activity", "setting": "[8]", "value": "Toxic"}, {"measurement": "logD", "setting": "[9]", "value": 2.5}, {"measurement": "EC50", "setting": "[10]", "value": 67, "unit": "nM"}, {"measurement": "Activity", "setting": "[11]", "value": "Non-Toxic"}, {"measurement": "efflux ratio", "setting": "[12]", "value": 2.2}, {"measurement": "Activity", "setting": "[13]", "value": 206, "unit": "%"}, {"measurement": "Activity", "setting": "[14]", "value": "Dose-dependent effect"}, {"measurement": "Activity", "setting": "[15]", "value": 241, "unit": "%"}, {"measurement": "AUC at 24 h", "setting": "[16]", "value": 9000, "unit": "ng·h/mL"}, {"measurement": "IC50", "setting": "[17]", "value": 155, "unit": "nM"}, {"measurement": "Activity", "setting": "[18]", "value": 90, "unit": "%"}, {"measurement": "Activity", "setting": "[19]", "value": "Dose-dependent effect"}, {"measurement": "EC1.5", "setting": "[20]", "value": 29, "unit": "nM"}, {"measurement": "Activity", "setting": "[21]", "value": "Non-Toxic"}, {"measurement": "Activity", "setting": "[22]", "value": "Toxic"}, {"measurement": "Activity", "setting": "[23]", "value": "Active"}, {"measurement": "Activity", "setting": "[24]", "value": "Non-Toxic"}, {"measurement": "Activity", "setting": "[25]", "value": 0, "unit": "%"}, {"measurement": "Activity", "setting": "[26]", "value": 17, "unit": "%"}, {"measurement": "bioavailability", "setting": "[27]", "value": 100, "unit": "%"}, {"measurement": "Activity", "setting": "[28]", "value": "Non-Toxic"}, {"measurement": "Activity", "setting": "[29]", "value": "Non-Toxic"}, {"measurement": "Activity", "setting": "[30]", "value": 49, "unit": "%"}, {"measurement": "bioavailability", "setting": "[31]", "value": 43, "unit": "%"}, {"measurement": "Activity", "setting": "[32]", "value": "Non-Toxic"}, {"measurement": "Activity", "setting": "[33]", "value": "Non-Toxic"}, {"measurement": "fraction unbound", "setting": "[34]", "value": 0.11}, {"measurement": "Activity", "setting": "[35]", "value": 32, "unit": "%"}, {"measurement": "fraction unbound", "setting": "[36]", "value": 0.1}, {"measurement": "Activity", "setting": "[37]", "value": "Dose-dependent effect"}, {"measurement": "half-life", "setting": "[38]", "value": 5.4, "unit": "h"}, {"measurement": "Activity", "setting": "[39]", "value": 0, "unit": "%"}, {"measurement": "half-life", "setting": "[40]", "value": 6.4, "unit": "h"}, {"measurement": "IC20", "setting": "[41]", "value": "> 5000", "unit": "nM"}]}]}
